For the assay, the target named is T1, hNav1.7 (Homo sapiens, UniProt Q15858).
T1 construct: host or cells: CHO
The experiment in a line: Manual patch clamp experiment hNav1.7 (CHO-hNav1.7 stable cell line). It is filed as cell-based. The settings on record: for inhibitory activity against Nav1.7 (in words): comparison from Table 1; for inhibition at 0.1 µM: read-out: Inhibition of Nav1.7 100 nM(%); for inhibition at 1 µM: read-out: Inhibition of Nav1.7 1000 nM(%). An excerpt:
Assay 1: Manual Patch Clamp Experiment of Sodium Ion (hNav1.7, hNav1.5 and hNaV1.8) and Calcium Ion (hCav3.2) Channels
hNav1.7, hNav1.5 Manual Patch Clamp Experiment:
Patch voltage clamp electrophysiology allows for the direct measurement and quantification of current block of voltage-gated sodium channels (NaV's), and allows the determination of the time and voltage-dependence of block which has been interpreted as differential binding to the resting, open and inactivated states of the sodium channel to reflect the compound's inhibitory or activating effects (Hille, B., Journal of General Physiology (1977), 69: 497-515).
Representative compounds of the present invention were subject to a manual patch clamp experiment and the purpose of this study was to test the effect of compounds on this ion channel current on a stable cell line transfected with a specific ion channel using a manual patch clamp method. The used stable cell lines CHO-hNav1.7 and HEK-hNav1.5 were from Genionics and WuXi Apptec (Shanghai) respectively.
Manual patch clamp experimental program is as follows:
(1) Preparation of solutions and compounds: The whole cell patch clamp technique was used to record hNav1.7 and hNav1.5 currents. In the experiment, the composition of extracellular fluid (mM): HEPES: 5, NaCl: 40, KCl: CaCl2: 1, MgCl2: 1, CdCl2: 0.1, TEA-Cl: 20. The pH was adjusted to 7.3 with NaOH and the osmotic pressure was adjusted to 310-320 mOsm with sucrose, filtered and stored at 4° C. The composition of the intracellular fluid (mM): HEPES: 10, NaCl: 10, CsOH: 5, CsF: 140, EGTA: 1. The pH was adjusted to 7.3 with CsOH and the osmotic pressure was adjusted to 280-290 mOsm with sucrose, filtered and stored at −20° C.
The positive control and the test compound were firstly dissolved in 100% DMSO (Sigma-Aldrich, D2650), configured as stock solution at a concentration (100 nM, 1000 nM).) The above stock solution was serially diluted with DMSO prior to the experiment, the solution was further diluted with extracellular solution to obtain the test solution of the desired concentration.
(2) Manual Patch Clamp Experiment: The cell suspension was added to a 35 mm petri dish and placed on an inverted microscope stage. The cells were perfused with an extracellular fluid and the flow rate was 1-2 mL/min after cell adherence. The glass microelectrode was prepared in two steps by a microelectrode puller with an inlet water resistance of 2-5 MΩ. A/D-D/A digital-analog conversion was performed by Digidata 1440 (Molecular Devices) and pCLAMP software (version 10.2, Molecular Devices) for stimulation and signal acquisition; the signal was amplified by patch clamp amplifier (Multiclamp 700B, Molecular Devices), and filtering is 4 KHz.
Two different voltage stimulation procedures were used in the hNav1.7 and hNav1.5 manual patch clamp experiments.
One is the inactivation stimulation program, the clamp potential is set at V1/2 of the corresponding channel, i.e., about 50% of the channels are inactivated, then the voltage is applied to −120 mV for 50 ms, then depolarized to −10 mV for 20 ms leading to sodium current, and finally returned to the clamp potential. This stimulation program can also be called channel state-dependent voltage stimulation program.
The other is the non-inactivation stimulation program, the clamp potential is maintained at −120 mV, voltage stimulation is given to −10 mV for 20 ms leading to sodium current, and finally returned to the clamp potential. That is, all channels have not experienced inactivation status, but activate directly from the resting state under the conditions of the stimulation program.
The time intervals of these two voltage stimulation programs were 10 s. The inhibitory effect of the compound was calculated by the change of the current before and after dosing, the IC50 value was fitted by the Hill equation.
(In patch-clamp work, channel activity is measured electrically.)

The values that follow come from US10815197B2, “N-sulfonyl benzamides as voltage-gated sodium channel inhibitors” (SHANGHAI HAIYAN PHARMACEUTICAL TECHNOLOGY CO., LTD., priority 2016, dated 2020).

Read-outs that look alike come from different tables or passages of the source.

T1 sequence (Q15858 whole entry): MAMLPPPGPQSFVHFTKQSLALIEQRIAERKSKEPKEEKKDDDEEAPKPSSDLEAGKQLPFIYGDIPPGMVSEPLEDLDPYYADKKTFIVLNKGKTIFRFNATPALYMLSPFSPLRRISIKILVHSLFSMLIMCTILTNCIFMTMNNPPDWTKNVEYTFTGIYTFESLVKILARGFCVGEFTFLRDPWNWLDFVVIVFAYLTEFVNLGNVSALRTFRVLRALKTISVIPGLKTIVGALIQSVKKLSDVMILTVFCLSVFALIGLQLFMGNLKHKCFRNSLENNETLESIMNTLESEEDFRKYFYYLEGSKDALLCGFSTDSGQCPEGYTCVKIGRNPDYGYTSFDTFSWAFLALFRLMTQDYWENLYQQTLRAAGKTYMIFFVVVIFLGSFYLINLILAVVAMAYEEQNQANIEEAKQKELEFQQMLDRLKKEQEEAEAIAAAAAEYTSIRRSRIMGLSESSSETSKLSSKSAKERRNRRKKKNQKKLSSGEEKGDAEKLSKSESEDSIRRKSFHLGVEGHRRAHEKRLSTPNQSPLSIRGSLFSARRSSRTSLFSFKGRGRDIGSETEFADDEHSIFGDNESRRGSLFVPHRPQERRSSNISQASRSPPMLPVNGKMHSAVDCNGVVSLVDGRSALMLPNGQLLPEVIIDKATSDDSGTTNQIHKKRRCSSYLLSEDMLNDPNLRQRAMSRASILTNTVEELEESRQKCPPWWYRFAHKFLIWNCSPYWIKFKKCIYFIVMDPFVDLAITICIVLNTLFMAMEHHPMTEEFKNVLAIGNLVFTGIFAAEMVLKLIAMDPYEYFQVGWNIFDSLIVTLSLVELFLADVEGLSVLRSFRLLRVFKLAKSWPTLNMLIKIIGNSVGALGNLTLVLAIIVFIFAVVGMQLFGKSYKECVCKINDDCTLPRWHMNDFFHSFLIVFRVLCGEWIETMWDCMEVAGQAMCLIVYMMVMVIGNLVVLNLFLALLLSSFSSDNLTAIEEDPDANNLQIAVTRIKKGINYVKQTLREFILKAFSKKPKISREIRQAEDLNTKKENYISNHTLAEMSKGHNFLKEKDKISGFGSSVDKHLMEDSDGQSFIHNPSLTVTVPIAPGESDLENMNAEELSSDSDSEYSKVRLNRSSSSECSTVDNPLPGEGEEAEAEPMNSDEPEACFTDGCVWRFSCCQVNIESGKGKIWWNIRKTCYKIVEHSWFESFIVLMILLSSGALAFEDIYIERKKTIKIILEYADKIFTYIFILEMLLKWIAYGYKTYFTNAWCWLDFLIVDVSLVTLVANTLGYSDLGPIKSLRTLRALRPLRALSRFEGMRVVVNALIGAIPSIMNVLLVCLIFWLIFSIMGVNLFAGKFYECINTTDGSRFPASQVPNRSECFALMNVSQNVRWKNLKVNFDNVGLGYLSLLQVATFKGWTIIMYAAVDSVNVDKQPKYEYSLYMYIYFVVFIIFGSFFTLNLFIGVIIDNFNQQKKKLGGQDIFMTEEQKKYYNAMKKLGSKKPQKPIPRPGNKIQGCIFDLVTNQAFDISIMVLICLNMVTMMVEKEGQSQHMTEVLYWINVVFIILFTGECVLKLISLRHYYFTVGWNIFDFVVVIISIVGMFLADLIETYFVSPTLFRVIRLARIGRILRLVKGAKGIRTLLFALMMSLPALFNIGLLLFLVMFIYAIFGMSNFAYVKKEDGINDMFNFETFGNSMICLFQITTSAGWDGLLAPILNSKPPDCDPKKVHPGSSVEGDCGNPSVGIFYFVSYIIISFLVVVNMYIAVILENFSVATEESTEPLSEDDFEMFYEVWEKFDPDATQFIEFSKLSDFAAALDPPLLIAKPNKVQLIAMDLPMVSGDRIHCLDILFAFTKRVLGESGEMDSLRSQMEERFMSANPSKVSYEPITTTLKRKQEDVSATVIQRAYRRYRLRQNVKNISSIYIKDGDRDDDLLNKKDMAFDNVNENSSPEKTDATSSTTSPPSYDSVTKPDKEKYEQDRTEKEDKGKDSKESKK

One may read the inhibition as the drop in the measured response relative to a control, in per cent. Regarding `O=C(NS(=O)(=O)C1CC1)c1cc(C2CC2)c(CN2CCN(Cc3cc(Cl)cc(Cl)c3)CC2)cc1F` [Compound C1, reference compound], the “inhibitory activity against Nav1.7 (in words)” value (“inhibitory activity” for short) was “significantly reduced”, the inhibition at 0.1 µM turned out to be 52% and the inhibition at 1 µM amounted to 64%.

For the compound `CS(=O)(=O)NC(=O)c1cc(C2CC2)c(CN2CCN(Cc3ccc(Cl)c(Cl)c3)CC2)cc1F` [Compound C2, reference compound], the “inhibitory activity” value is “significantly reduced”. Under “compound at 100 nM”, the inhibition at 0.1 µM was 49.2%. Moreover, the inhibition at 1 µM (compound at 1000 nM) amounted to 64.8%.

As for `Cc1cc(C(=O)N2CCN(Cc3cc(F)c(C(=O)NS(=O)(=O)C4CC4)cc3Cl)CC2)ccc1Cl` [Compound C3, reference compound], the inhibition at 0.1 µM (compound at 100 nM) was 17.6%. Further, the inhibition at 1 µM (compound at 1000 nM) worked out at 52.3%.

Take `Cc1cc(CN2CCN(Cc3cc(F)c(C(=O)NS(=O)(=O)C4CC4)cc3Cl)CC2)ccc1Cl` [Compound C4, 5-chloro-4-((4-(4-chloro-3-methylbenzyl)piperazin-1-yl)methyl)-N-(cyclopropylsulfonyl)-2-fluorobenzamide, reference compound]: the “inhibitory activity” value is given as “significantly reduced”. For the same compound, the inhibition at 0.1 µM (compound at 100 nM) amounted to 18.6%. Besides, the inhibition at 1 µM (compound at 1000 nM) turned out to be 58.9%.

Regarding `O=C(NS(=O)(=O)C1CC1)c1cc(Cl)c(CN2CCN(C(=O)c3ccc(Cl)cc3)CC2)cc1F` [Compound C5, reference compound], the inhibition at 0.1 µM (compound at 100 nM) worked out at 17.2%. Also, the inhibition at 1 µM (compound at 1000 nM) turned out to be 36.8%.

As to `O=C(NS(=O)(=O)C1CC1)c1cc(Cl)c(CN2CCN(Cc3ccc(Cl)cc3)CC2)cc1F` [Compound C6, reference compound], the inhibition at 0.1 µM (compound at 100 nM) is 11.2%. The inhibition at 1 µM (compound at 1000 nM) worked out at 57.2%.

Consider `O=C(NS(=O)(=O)C1CC1)c1cc(Cl)c(OC[C@H]2CCCN2Cc2ccc(Cl)cc2)cc1F` [Compound C7, (R)-5-chloro-4-((1-(4-chlorobenzyl)pyrrolidin-2-yl)methoxy)-N-(cyclopropylsulfonyl), reference compound], for which the inhibition at 0.1 µM turned out to be 31.1% and the inhibition at 1 µM was found to be 67.5%.

For the compound `O=C(NS(=O)(=O)C1CC1)c1cc(Cl)c(OC[C@H]2CCCN2Cc2ccc(C(F)(F)F)cc2)cc1F` [Compound C8, (R)-5-chloro-N-(cyclopropylsulfonyl)-2-fluoro-4-((1-(4-(trifluoromethyl)benzyl)pyrrolidin-2-yl)methoxy), reference compound], the inhibition at 0.1 µM (compound at 100 nM) turned out to be 47%. Also, the inhibition at 1 µM (compound at 1000 nM) is 66.8%.

`O=C(NS(=O)(=O)C1CC1)c1cc(Cl)c(OC[C@H]2CCCN2C(=O)c2ccc(Cl)cc2)cc1F` [Compound C9, (R)-5-chloro-4-((1-(4-chlorobenzoyl)pyrrolidin-2-yl)methoxy)-N-(cyclopropylsulfonyl), reference compound]: the inhibition at 0.1 µM (compound at 100 nM) came to 5.49%. Where the note is “compound at 1000 nM”, the inhibition at 1 µM was 29.1%.

As to `O=C(NS(=O)(=O)C1CC1)c1cc(Cl)c(OC[C@H]2CCCN2C(=O)c2ccc(C(F)(F)F)cc2)cc1F` [Compound C10, (R)-5-chloro-N-(cyclopropylsulfonyl)-2-fluoro-4-((1-(4-(trifluoromethyl)benzoyl)pyrrolidin-2-yl)methoxy), reference compound], the inhibition at 0.1 µM (compound at 100 nM) was found to be 7.83%. The inhibition at 1 µM (compound at 1000 nM) worked out at 24.7%.

With `CS(=O)(=O)NC(=O)c1cc(C2CC2)c(CN2CCN(Cc3cc(Cl)cc(Cl)c3)CC2)cc1F` [Compound C11, reference compound], the “inhibitory activity” value is given as “significantly reduced”. For the same compound, for the setting “compound at 100 nM”, the inhibition at 0.1 µM worked out at 23.1%. The inhibition at 1 µM (compound at 1000 nM) was found to be 51.9%.

As to `O=C(NS(=O)(=O)C1CC1)c1cc(C2CC2)c(OC[C@H]2CCCN2c2ccc(C(F)(F)F)cn2)cc1F` [Compound Z-142, (R)-5-cyclopropyl-N-(cyclopropylsulfonyl)-2-fluoro-4-((1-(5-(trifluoromethyl)pyridin-2-yl)pyrrolidin-2-yl)methoxy)benzamide], where the note is “compound at 100 nM”, the inhibition at 0.1 µM turned out to be 92.2%. The inhibition at 1 µM (compound at 1000 nM) was 97.8%.

For the compound `O=C(NS(=O)(=O)C1CC1)c1cc(Cl)c(OC[C@H]2CCCN2c2ccc(C(F)(F)F)cn2)cc1F` [Compound Z-150, (R)-5-chloro-N-(cyclopropylsulfonyl)-2-fluoro-4-((1-(5-(trifluoromethyl)pyridin-2-yl)pyrrolidin-2-yl)methoxy)benzamide], the inhibition at 0.1 µM (compound at 100 nM) was 93.3%. Under “compound at 1000 nM”, the inhibition at 1 µM turned out to be 96.7%.

As to `O=C(NS(=O)(=O)C1CC1)c1cc(Cl)c(CN2CCN(c3ccc(C(F)(F)F)cc3)CC2)cc1F` [Compound Z-174], under “compound at 100 nM”, the inhibition at 0.1 µM is 78%. For the same compound, for the setting “compound at 1000 nM”, the inhibition at 1 µM is 95.1%.

As for `Cc1cc(N2CCN(Cc3cc(F)c(C(=O)NS(=O)(=O)C4CC4)cc3Cl)CC2)cc(C)c1F` [Compound Z-180], where the note is “compound at 100 nM”, the inhibition at 0.1 µM stood at 70.4%. In addition, the inhibition at 1 µM (compound at 1000 nM) came out at 97.8%.

For `Cc1c(F)c(F)cc(N2CCN(Cc3cc(F)c(C(=O)NS(=O)(=O)C4CC4)cc3Cl)CC2)c1F` [Compound Z-182], the inhibition at 0.1 µM (compound at 100 nM) stood at 77.2%. Moreover, the inhibition at 1 µM (compound at 1000 nM) turned out to be 97.6%.

As for `Cc1c(F)ccc(N2CCN(Cc3cc(F)c(C(=O)NS(=O)(=O)C4CC4)cc3Cl)CC2)c1Cl` [Compound Z-184], the inhibition at 0.1 µM (compound at 100 nM) came out at 70.3%. Moreover, under “compound at 1000 nM”, the inhibition at 1 µM is 98.5%.

As to `Cc1cc(N2CCN(Cc3cc(F)c(C(=O)NS(=O)(=O)C4CC4)cc3Cl)CC2)cc(C)c1Cl` [Compound Z-185], where the note is “compound at 100 nM”, the inhibition at 0.1 µM was determined as 85.3%. The inhibition at 1 µM (compound at 1000 nM) was determined as 94.9%.

Turning to `Cc1c(Cl)ccc(N2CCN(Cc3cc(F)c(C(=O)NS(=O)(=O)C4CC4)cc3Cl)CC2)c1F` [Compound Z-188], the inhibition at 0.1 µM (compound at 100 nM) came out at 81.8%. The inhibition at 1 µM (compound at 1000 nM) is 98.1%.

On to `CCc1cc(C(=O)NS(=O)(=O)C2CC2)c(F)cc1CN1CCN(c2ccc(Cl)c(Cl)c2)CC1` [Compound Z-191], for which the inhibition at 0.1 µM (compound at 100 nM) is 73.3%. The inhibition at 1 µM (compound at 1000 nM) was determined as 95%.

In the case of `CCc1cc(C(=O)NS(=O)(=O)C2CC2)c(F)cc1CN1CCN(c2cc(Cl)cc(Cl)c2)CC1` [Compound Z-192], the inhibition at 0.1 µM (compound at 100 nM) came out at 77.7%. The inhibition at 1 µM (compound at 1000 nM) is 98.4%.

For `CCc1cc(C(=O)NS(=O)(=O)C2CC2)c(F)cc1CN1CCN(c2ccc(Cl)c(F)c2)CC1` [Compound Z-193], under “compound at 100 nM”, the inhibition at 0.1 µM is 72.6%. The inhibition at 1 µM (compound at 1000 nM) was 95.7%.

As for `O=C(NS(=O)(=O)C1CC1)c1cc(C2CC2)c(CN2CCN(c3cc(Cl)cc(Cl)c3)CC2)cc1F` [Compound Z-197], the inhibition at 0.1 µM stood at 83.6% and the inhibition at 1 µM worked out at 100%.

For “(cyclopropylsulfonyl)-4-((4-(3,4-dichlorophenyl) piperazin-1-yl)methyl)-2-fluorobenzamide [Compound Z-196]”, the “Inhibition of Nav1.7 100 nM(%)” value (compound at 100 nM) was determined as 85.03%. Also, the “Inhibition of Nav1.7 1000 nM(%)” value (compound at 1000 nM) was 93.02%.
